In PubChem BioAssay AID1259407 (Chemical Carcinogenesis Research Information System (CCRIS), 2018):
Active and inactive are the calls of the source. How the calls were made is not given here.

System: CCRIS mutagenicity, Ames/micronucleus/aberration tests
Test: CCRIS mutagenicity studies
[1] = Test System: AMES SALMONELLA TYPHIMURIUM, Strain/Indicator: TA100, Metabolic Activation: NONE, Method: STANDARD PLATE
[2] = Test System: AMES SALMONELLA TYPHIMURIUM, Strain/Indicator: TA100, Metabolic Activation: NONE, Method: PREINCUBATION
[3] = Test System: AMES SALMONELLA TYPHIMURIUM, Strain/Indicator: TA100, Metabolic Activation: RAT, LIVER, S-9, AROCLOR 1254, Method: PREINCUBATION

**Q.** How did the mutagenic call (Test System: AMES SALMONELLA TYPHIMURIUM, Strain/Indicator: TA1537, Metabolic Activation: NONE, Method: STANDARD PLATE) turn out when `CCC(=O)C1c2cccc(O)c2C(=O)c2c(O)cccc21` was run?
**A.** active; positive

**Q.** And the mutagenic call (Test System: AMES SALMONELLA TYPHIMURIUM, Strain/Indicator: TA1537, Metabolic Activation: RAT, LIVER, S-9, PHENOBARBITAL AND BETA-NAPHTHOFLAVONE, Method: STANDARD PLATE)?
**A.** active; positive

**Q.** And the mutagenic call (Test System: E. COLI, Strain/Indicator: WP2, Metabolic Activation: NONE, Method: STANDARD PLATE)?
**A.** inactive; negative

**Q.** And the mutagenic call (Test System: E. COLI, Strain/Indicator: WP2, Metabolic Activation: RAT, LIVER, S-9, AROCLOR 1254, Method: STANDARD PLATE)?
**A.** inactive; negative

**Q.** What about the mutagenic call (Test System: E. COLI, Strain/Indicator: WP2 UVRA, Metabolic Activation: NONE, Method: STANDARD PLATE) of the same compound?
**A.** inactive; negative

**Q.** And the mutagenic call (Test System: E. COLI, Strain/Indicator: WP2 UVRA, Metabolic Activation: RAT, LIVER, S-9, AROCLOR 1254, Method: STANDARD PLATE)?
**A.** inactive; negative

**Q.** With `N[C@@H](CCC(=O)N(CC(=O)O)C(=O)[C@@H](N)CSCCCl)C(=O)O` as the compound, how does the mutagenic call [1] read?
**A.** active; positive

**Q.** `CCCCNC(=O)c1cc(N)ccc1Oc1ccccc1` was tested. Which mutagenic call (Test System: Ames Salmonella typhimurium, Strain/Indicator: TA98, Metabolic Activation: None, Method: Preincubation) did it give?
**A.** inactive; negative. data for this compound, pa10, mentioned in abstract only.

**Q.** What about the mutagenic call (Test System: Ames Salmonella typhimurium, Strain/Indicator: TA98, Metabolic Activation: Rat, Liver, S-9, Phenobarbital and beta-naphthoflavone, Method: Preincubation) of the same compound?
**A.** inactive; negative. this compound, pa10, converted by s-9 to a hydroxy derivative.

**Q.** What about the mutagenic call (Test System: Ames Salmonella typhimurium, Strain/Indicator: TA100, Metabolic Activation: None, Method: Preincubation) of the same compound?
**A.** inactive; negative. data for this compound, pa10, mentioned in abstract only.

**Q.** And the mutagenic call (Test System: Ames Salmonella typhimurium, Strain/Indicator: TA100, Metabolic Activation: Rat, Liver, S-9, Phenobarbital and beta-naphthoflavone, Method: Preincubation)?
**A.** inactive; negative. this compound, pa10, converted by s-9 to a hydroxy derivative.

**Q.** And the mutagenic call (Test System: Ames Salmonella typhimurium, Strain/Indicator: TA102, Metabolic Activation: None, Method: Preincubation)?
**A.** inactive; negative. data for this compound, pa10, mentioned in abstract only.

**Q.** And the mutagenic call (Test System: Ames Salmonella typhimurium, Strain/Indicator: TA1535, Metabolic Activation: None, Method: Preincubation)?
**A.** inactive; negative. data for this compound, pa10, mentioned in abstract only.

**Q.** And the mutagenic call (Test System: Ames Salmonella typhimurium, Strain/Indicator: TA1537, Metabolic Activation: None, Method: Preincubation)?
**A.** inactive; negative. data for this compound, pa10, mentioned in abstract only.

**Q.** What does the source list for `CCCC/C=C/C=C/C=C/C=C/C=C/OC[C@@H](O)CO`?
**A.** mutagenic call [2]: active; positive; mutagenic call [3]: active; positive

**Q.** With `O[As](O)O` as the compound, how does the mutagenic call (End Point: IN VIVO MICRONUCLEUS, Test System: BONE MARROW POLYCHROMATIC ERYTHROCYTES, Species: MOUSE, Strain/Sex: C57BL/6/MALE, Route: IP INJECTION) read?
**A.** active; positive

**Q.** Which mutagenic call [2] does the source give for `C=C(C=O)CC` here?
**A.** active; positive

**Q.** What about the mutagenic call (Test System: AMES SALMONELLA TYPHIMURIUM, Strain/Indicator: TA100, Metabolic Activation: RAT LIVER S-9, AROCLOR 1254, Method: PREINCUBATION) of the same compound?
**A.** active; positive

**Q.** What about the mutagenic call [3] of the same compound?
**A.** active; positive

**Q.** With `Cc1ccc2c(c1)-c1cc3ccccc3c3cc4ccccc4c-2c13` as the compound, how does the mutagenic call (Test System: AMES SALMONELLA TYPHIMURIUM, Strain/Indicator: TA100, Metabolic Activation: RAT, LIVER, S-9, 3-METHYLCHOLANTHRENE, Method: STANDARD PLATE) read?
**A.** active; positive

**Q.** With `CC(=O)NNc1ccccc1` as the compound, how does the mutagenic call (Test System: AMES SALMONELLA TYPHIMURIUM, Strain/Indicator: TA97, Metabolic Activation: HAMSTER, LIVER, S-9, AROCLOR 1254 (5%), Method: PREINCUBATION) read?
**A.** inactive; negative

**Q.** What about the mutagenic call (Test System: AMES SALMONELLA TYPHIMURIUM, Strain/Indicator: TA97, Metabolic Activation: HAMSTER, LIVER, S-9, AROCLOR 1254 (10%), Method: PREINCUBATION) of the same compound?
**A.** inactive; negative

**Q.** What about the mutagenic call (Test System: AMES SALMONELLA TYPHIMURIUM, Strain/Indicator: TA97, Metabolic Activation: HAMSTER, LIVER, S-9, AROCLOR 1254 (30%), Method: PREINCUBATION) of the same compound?
**A.** active; positive

**Q.** What about the mutagenic call (Test System: AMES SALMONELLA TYPHIMURIUM, Strain/Indicator: TA97, Metabolic Activation: NONE, Method: PREINCUBATION) of the same compound?
**A.** active; positive

**Q.** What about the mutagenic call (Test System: AMES SALMONELLA TYPHIMURIUM, Strain/Indicator: TA97, Metabolic Activation: RAT, LIVER, S-9, AROCLOR 1254 (5, 10 OR 30%), Method: PREINCUBATION) of the same compound?
**A.** inactive; negative

**Q.** And the mutagenic call (Test System: AMES SALMONELLA TYPHIMURIUM, Strain/Indicator: TA98, Metabolic Activation: HAMSTER, LIVER, S-9, AROCLOR 1254 (5, 10 OR 30%), Method: PREINCUBATION)?
**A.** inactive; negative

**Q.** And the mutagenic call (Test System: AMES SALMONELLA TYPHIMURIUM, Strain/Indicator: TA98, Metabolic Activation: NONE, Method: PREINCUBATION)?
**A.** inactive; negative

**Q.** And the mutagenic call (Test System: AMES SALMONELLA TYPHIMURIUM, Strain/Indicator: TA98, Metabolic Activation: RAT, LIVER, S-9, AROCLOR 1254 (5, 10 OR 30%), Method: PREINCUBATION)?
**A.** inactive; negative

**Q.** And the mutagenic call (Test System: AMES SALMONELLA TYPHIMURIUM, Strain/Indicator: TA100, Metabolic Activation: HAMSTER, LIVER, S-9, AROCLOR 1254 (5%), Method: PREINCUBATION)?
**A.** inactive; negative

**Q.** What about the mutagenic call (Test System: AMES SALMONELLA TYPHIMURIUM, Strain/Indicator: TA100, Metabolic Activation: HAMSTER, LIVER, S-9, AROCLOR 1254 (10%), Method: PREINCUBATION) of the same compound?
**A.** inactive; negative

**Q.** And the mutagenic call (Test System: AMES SALMONELLA TYPHIMURIUM, Strain/Indicator: TA100, Metabolic Activation: HAMSTER, LIVER, S-9, AROCLOR 1254 (30%), Method: PREINCUBATION)?
**A.** inactive; negative

**Q.** What about the mutagenic call [2] of the same compound?
**A.** inactive; negative

**Q.** And the mutagenic call (Test System: AMES SALMONELLA TYPHIMURIUM, Strain/Indicator: TA100, Metabolic Activation: RAT, LIVER, S-9, AROCLOR 1254 (5%), Method: PREINCUBATION)?
**A.** inactive; negative

**Q.** And the mutagenic call (Test System: AMES SALMONELLA TYPHIMURIUM, Strain/Indicator: TA100, Metabolic Activation: RAT, LIVER, S-9, AROCLOR 1254 (10%), Method: PREINCUBATION)?
**A.** inactive; negative

**Q.** What about the mutagenic call (Test System: AMES SALMONELLA TYPHIMURIUM, Strain/Indicator: TA100, Metabolic Activation: RAT, LIVER, S-9, AROCLOR 1254 (30%), Method: PREINCUBATION) of the same compound?
**A.** inactive; negative

**Q.** And the mutagenic call (Test System: AMES SALMONELLA TYPHIMURIUM, Strain/Indicator: TA1535, Metabolic Activation: HAMSTER, LIVER, S-9, AROCLOR 1254 (10%), Method: PREINCUBATION)?
**A.** inactive; negative

**Q.** And the mutagenic call (Test System: AMES SALMONELLA TYPHIMURIUM, Strain/Indicator: TA1535, Metabolic Activation: HAMSTER, LIVER, S-9, AROCLOR 1254 (30%), Method: PREINCUBATION)?
**A.** inactive; negative

**Q.** And the mutagenic call (Test System: AMES SALMONELLA TYPHIMURIUM, Strain/Indicator: TA1535, Metabolic Activation: NONE, Method: PREINCUBATION)?
**A.** active; positive

**Q.** And the mutagenic call (Test System: AMES SALMONELLA TYPHIMURIUM, Strain/Indicator: TA1535, Metabolic Activation: RAT, LIVER, S-9, AROCLOR 1254 (5%), Method: PREINCUBATION)?
**A.** inactive; negative

**Q.** And the mutagenic call (Test System: AMES SALMONELLA TYPHIMURIUM, Strain/Indicator: TA1535, Metabolic Activation: RAT, LIVER, S-9, AROCLOR 1254 (10%), Method: PREINCUBATION)?
**A.** inactive; negative

**Q.** And the mutagenic call (Test System: AMES SALMONELLA TYPHIMURIUM, Strain/Indicator: TA1535, Metabolic Activation: RAT, LIVER, S-9, AROCLOR 1254 (30%), Method: PREINCUBATION)?
**A.** inactive; negative

**Q.** Which mutagenic call (Test System: AMES SALMONELLA TYPHIMURIUM, Strain/Indicator: TA98, Metabolic Activation: NONE, Method: STANDARD PLATE) does the source give for `OC1C[C@]23C=CC=C[C@@]2(C1)O3` (stereo partly specified) here?
**A.** inactive; negative

**Q.** What about the mutagenic call [1] of the same compound?
**A.** inactive; negative

**Q.** What about the mutagenic call (Test System: AMES SALMONELLA TYPHIMURIUM, Strain/Indicator: TM677/8-AZAGUANINE, Metabolic Activation: NONE, Method: STANDARD PLATE) of the same compound?
**A.** active; positive

**Q.** With `Cc1ccc2cc3c4c(ccc3c3c2c1CC3)C=C[C@H](O)[C@H]4O` as the compound, how does the mutagenic call (Test System: CHINESE HAMSTER V-79, Strain/Indicator: V-79/8-AZAGUANINE, Metabolic Activation: NONE, Method: STANDARD PLATE) read?
**A.** active; positive
